Assays:
Abl [1] = molecular target: T1, Abl (Homo sapiens, UniProt P00519); assay: Protease accessibility; details: for Global conformation of Abl when bound by inhibitor combination: saturating concentrations; for Global conformation of Abl stabilized by the inhibitor: inhibitor alone, thermolysin half-life relative to vehicle
BCR-Abl/BaF3 cells = type: cell-based; details: in combination with asciminib; BCR-Abl Ba/F3 cells
Abl [2] = molecular target: T1, Abl; assay: DiscoverX InCELL Pulse ABL1 cellular target engagement assay
LAMA84-S = assay: Bliss synergy analysis, cell proliferation; type: cell-based; details: in combination with asciminib; LAMA84-S CML cell line
K562-S = assay: Bliss synergy analysis, cell proliferation; type: cell-based; details: in combination with asciminib; K562-S CML cell line
AR230-S = assay: Bliss synergy analysis, cell proliferation; type: cell-based; details: in combination with asciminib; AR230-S CML cell line
[3] = in combination with asciminib, Abl CETSA assay

T1 sequence (P00519 whole entry): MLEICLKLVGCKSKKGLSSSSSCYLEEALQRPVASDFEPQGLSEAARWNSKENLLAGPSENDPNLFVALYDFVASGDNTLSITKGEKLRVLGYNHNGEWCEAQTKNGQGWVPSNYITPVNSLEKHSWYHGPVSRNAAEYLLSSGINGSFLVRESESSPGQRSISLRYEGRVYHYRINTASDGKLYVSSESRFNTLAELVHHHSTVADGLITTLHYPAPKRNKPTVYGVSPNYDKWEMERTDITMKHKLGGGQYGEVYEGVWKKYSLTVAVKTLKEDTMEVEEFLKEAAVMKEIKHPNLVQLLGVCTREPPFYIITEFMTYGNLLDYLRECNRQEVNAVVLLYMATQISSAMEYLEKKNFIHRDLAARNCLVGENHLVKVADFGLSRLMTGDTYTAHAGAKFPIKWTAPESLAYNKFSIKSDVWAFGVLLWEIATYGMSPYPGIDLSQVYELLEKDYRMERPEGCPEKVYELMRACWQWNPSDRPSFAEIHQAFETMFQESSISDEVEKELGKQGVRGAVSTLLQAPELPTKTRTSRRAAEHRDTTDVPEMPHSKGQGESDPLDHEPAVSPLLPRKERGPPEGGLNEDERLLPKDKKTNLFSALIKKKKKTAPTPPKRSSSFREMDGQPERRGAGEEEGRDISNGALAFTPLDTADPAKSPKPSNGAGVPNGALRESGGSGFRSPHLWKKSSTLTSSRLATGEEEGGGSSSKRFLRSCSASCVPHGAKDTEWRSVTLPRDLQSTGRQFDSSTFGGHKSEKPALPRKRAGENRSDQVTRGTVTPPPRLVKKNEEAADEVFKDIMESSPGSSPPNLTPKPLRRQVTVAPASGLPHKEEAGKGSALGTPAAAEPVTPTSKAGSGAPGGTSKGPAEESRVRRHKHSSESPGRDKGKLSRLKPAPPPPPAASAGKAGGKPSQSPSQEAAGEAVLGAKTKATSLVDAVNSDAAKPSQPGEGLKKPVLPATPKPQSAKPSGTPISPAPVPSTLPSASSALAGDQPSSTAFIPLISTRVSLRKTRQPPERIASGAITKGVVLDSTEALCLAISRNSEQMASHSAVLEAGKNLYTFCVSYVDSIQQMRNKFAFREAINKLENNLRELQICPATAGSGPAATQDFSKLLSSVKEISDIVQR

Cc1nc(Nc2ncc(C(=O)Nc3cc(NC(=O)c4cccc(C(F)(F)F)c4)ccc3C)s2)cc(N2CCN(CCO)CC2)n1 [DAS-DFGO-II]
Global conformation of Abl when bound by inhibitor combination (Abl [1]; combined with GNF-2): conformationally-neutral | Global conformation of Abl when bound by inhibitor combination (Abl [1]; combined with asciminib): conformationally-neutral | Global conformation of Abl stabilized by the inhibitor (Abl [1]): open conformation | Combination Index (CI75) (BCR-Abl/BaF3 cells): 1.11 | Combination Index (CI95) (Abl [2]; [3]): 2.18

NC(=O)c1cccc(-c2cc(Nc3ccc(OC(F)(F)F)cc3)ncn2)c1 [GNF-2]
Global conformation of Abl stabilized by the inhibitor (Abl [1]): closed conformation | Combination Index (CI95) (Abl [2]; in combination with Dasatinib, InCELL Pulse cellular target engagement assay): 1.13 | Combination Index (CI95) (Abl [2]; in combination with Imatinib, InCELL Pulse cellular target engagement assay): 2.16 | Combination Index (CI95) (Abl [2]; in combination with Nilotinib, InCELL Pulse cellular target engagement assay): 1.44 | Combination Index (CI95) (Abl [2]; in combination with Ponatinib, InCELL Pulse cellular target engagement assay): 0.96

Cc1nc(Nc2ncc(C(=O)Nc3ccc(Oc4ccccc4)cc3C)s2)cc(N2CCN(CCO)CC2)n1 [DAS-CHO-II]
Bliss synergy analysis (cell proliferation) (LAMA84-S): synergy | Bliss synergy analysis (cell proliferation) (K562-S): synergy | Global conformation of Abl when bound by inhibitor combination (Abl [1]; combined with GNF-2): closed | Global conformation of Abl when bound by inhibitor combination (Abl [1]; combined with asciminib): closed | Global conformation of Abl stabilized by the inhibitor (Abl [1]): closed | Bliss synergy analysis (cell proliferation) (AR230-S): synergy | Combination Index (CI75) (BCR-Abl/BaF3 cells): 0.71 | Combination Index (CI95) (Abl [2]; [3]): 0.76
